Data on two molecules can be found in patent US20240174727A1, “LONG-ACTING NATRIURETIC PEPTIDES AND USES THEREOF” (Eli Lilly and Company, priority 2022, published 2024).

Numbered stars: 1 amine (or outer) side, 2 acyl side, 3 side chain; on linkers, the order of the positions; unused ones are H or OH. Bridge positions count the residues as written; N and C are the ends. Square brackets hold non-standard residues; d marks the D form. * marks the point of attachment. PEG24 = NCCOCCOCCOCCOCCOCCOCCOCCOCCOCCOCCOCCOCCOCCOCCOCCOCCOCCOCCOCCOCCOCCOCCOCCOCCC(=O)O; C20 diacid = O=C(O)CCCCCCCCCCCCCCCCCCC(=O)*; γGlu = O=C(O)[C@H](CCC(=O)[*:2])N[*:1]; 4Pal = N[C@@H](Cc1ccncc1)C(=O)O; CH2 = C([*:1])[*:2]

A short description of data set [1]: Pharmacokinetics in male Sprague Dawley rats. The format is in vivo. To be noted: rat, sc, mean, single subcutaneous administration of 200 nMol/kg, plasma; for half-life: read-out: t½ (converted). Put shortly: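 Male Sprague Dawley rats received a single subcutaneous dose of […], with blood sampled over 120 hours. Intact peptide in K3 EDTA plasma was measured by qualified high-resolution LC/MS after methanol/0.1% formic acid extraction with an analog internal standard; PK parameters from individual plasma concentrations.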

The test system of another data set is plasma cGMP. Nature of the data set: In vivo monkey studies, plasma cGMP ELISA. Details: species or system male cynomolgus monkeys. The settings on record: for Net cGMP (nM) Change from Baseline 0.083 h / Net cGMP (nM) Change from Baseline 0.25 h / Net cGMP (nM) Change from Baseline 0.5 h / Net cGMP (nM) Change from Baseline 1 h / Net cGMP (nM) Change from Baseline 2 h / Net cGMP (nM) Change from Baseline 4 h / Net cGMP (nM) Change from Baseline 8 h / Net cGMP (nM) Change from Baseline 12 h / Net cGMP (nM) Change from Baseline 24 h / Net cGMP (nM) Change from Baseline 36 h / Net cGMP (nM) Change from Baseline 48 h / Net cGMP (nM) Change from Baseline 72 h / Net cGMP (nM) Change from Baseline 96 h / Net cGMP (nM) Change from Baseline 120 h / Net cGMP (nM) Change from Baseline 144 h / Net cGMP (nM) Change from Baseline 168 h: dose 100 nmol/kg, monkey plasma; for Net cGMP (nM) Change from Baseline 0.083 h: 0.083 h postdose; for Net cGMP (nM) Change from Baseline 0.25 h: 0.25 h postdose; for Net cGMP (nM) Change from Baseline 0.5 h: 0.5 h postdose; for Net cGMP (nM) Change from Baseline 1 h: 1 h postdose; for Net cGMP (nM) Change from Baseline 2 h: 2 h postdose; for Net cGMP (nM) Change from Baseline 4 h: 4 h postdose; for Net cGMP (nM) Change from Baseline 8 h: 8 h postdose; for Net cGMP (nM) Change from Baseline 12 h: 12 h postdose; for Net cGMP (nM) Change from Baseline 24 h: 24 h postdose; for Net cGMP (nM) Change from Baseline 36 h: 36 h postdose; for Net cGMP (nM) Change from Baseline 48 h: 48 h postdose; for Net cGMP (nM) Change from Baseline 72 h: 72 h postdose; for Net cGMP (nM) Change from Baseline 96 h: 96 h postdose; for Net cGMP (nM) Change from Baseline 120 h: 120 h postdose; for Net cGMP (nM) Change from Baseline 144 h: 144 h postdose; for Net cGMP (nM) Change from Baseline 168 h: 168 h postdose; for net cGMP levels (result in words): monkeys, single SC dose, plasma. The procedure, abridged: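 Male cynomolgus monkeys received a single subcutaneous dose, with plasma sampled predose and at set timepoints. Plasma was diluted 1:20, acetylated and run in a competitive cGMP ELISA read at 405 nm. Values were interpolated from a 4-parameter standard curve, and the predose level was subtracted to give the net change (nM).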
On the technique in general: In an ELISA, binding on a coated surface is turned into a signal by an enzyme label.

As usually defined, the CL/F is the apparent clearance, not corrected for the fraction that reaches the circulation.

Turning to “{C20 diacid-γGlu}-EKEKEKG[PEG24]S[4Pal]RRSSCFGGRIDRIGHQSGLGCPSFRHGGPSSGAPPPS-NH2 (linker 15-31 via CH2) [Example 61]”, in data set [1], the CL/F is 1.08 mL/min/kg and the half-life was 6 h. Besides, in the data set with plasma cGMP, the “Net cGMP (nM) Change from Baseline 0.083 h” value was determined as 4.41 nM, the “Net cGMP (nM) Change from Baseline 0.25 h” value is listed as 24.85 nM, the “Net cGMP (nM) Change from Baseline 0.5 h” value is listed as 27.32 nM and the “Net cGMP (nM) Change from Baseline 1 h” value was found to be 28.35 nM. Moreover, in the data set with plasma cGMP, the “Net cGMP (nM) Change from Baseline 2 h” value came out at 25.21 nM, the “Net cGMP (nM) Change from Baseline 4 h” value is given as 28.38 nM, the “Net cGMP (nM) Change from Baseline 8 h” value came to 33.73 nM and the “Net cGMP (nM) Change from Baseline 12 h” value came out at 23.51 nM. In the data set with plasma cGMP, the “Net cGMP (nM) Change from Baseline 24 h” value is recorded as 27.96 nM, the “Net cGMP (nM) Change from Baseline 36 h” value is 24.75 nM, the “Net cGMP (nM) Change from Baseline 48 h” value was 11.81 nM and the “Net cGMP (nM) Change from Baseline 72 h” value was 14.82 nM. Also, in the data set on plasma cGMP, the “Net cGMP (nM) Change from Baseline 96 h” value worked out at 20.25 nM, the “Net cGMP (nM) Change from Baseline 120 h” value is 12.15 nM, the “Net cGMP (nM) Change from Baseline 144 h” value is 18 nM and the “Net cGMP (nM) Change from Baseline 168 h” value is reported as 11.81 nM. Moreover, in the data set on plasma cGMP, the “net cGMP levels (result in words)” value was “increased net cGMP levels”.
Regarding `CC[C@H](C)[C@@H]1NC(=O)[C@H](CCCNC(=N)N)NC(=O)[C@H](CC(=O)O)NC(=O)[C@H]([C@@H](C)CC)NC(=O)[C@H](CCCNC(=N)N)NC(=O)CNC(=O)CNC(=O)[C@H](Cc2ccccc2)NC(=O)[C@@H](NC(=O)[C@H](CO)NC(=O)[C@H](CO)NC(=O)[C@H](CCCNC(=N)N)NC(=O)CCNC(=O)[C@H](CCCCN)NC(=O)[C@H](CCC(=O)O)NC(=O)CNC(=O)[C@H](CCCCN)NC(=O)[C@H](CCC(=O)O)NC(=O)[C@H](CCCCN)NC(=O)[C@H](CCC(=O)O)NC(=O)[C@H](CCCCN)NC(=O)[C@H](CCC(=O)O)NC(=O)CC[C@H](NC(=O)CCCCCCCCCCCCCCCCCCC(=O)O)C(=O)O)CSCSC[C@@H](C(=O)N2CCC[C@H]2C(=O)N[C@@H](CO)C(=O)N[C@@H](Cc2ccccc2)C(=O)N[C@@H](CCCNC(=N)N)C(=O)N[C@@H](Cc2c[nH]cn2)C(=O)NCC(=O)NCC(=O)N2CCC[C@H]2C(=O)N[C@@H](CO)C(=O)N[C@@H](CO)C(=O)NCC(=O)N[C@@H](C)C(=O)N2CCC[C@H]2C(=O)N2CCC[C@H]2C(=O)N2CCC[C@H]2C(=O)N[C@@H](CO)C(N)=O)NC(=O)CNC(=O)[C@H](CC(C)C)NC(=O)CNC(=O)[C@H](CO)NC(=O)[C@H](Cc2ccc(O)cc2)NC(=O)[C@H](Cc2c[nH]cn2)NC(=O)CNC1=O` [Example 56], in data set [1], the CL/F is 0.187 mL/min/kg and the half-life is 36 h. Also, in the data set with plasma cGMP, the “Net cGMP (nM) Change from Baseline 0.083 h” value is -2.8 nM, the “Net cGMP (nM) Change from Baseline 0.25 h” value was -0.66 nM, the “Net cGMP (nM) Change from Baseline 0.5 h” value was -0.65 nM and the “Net cGMP (nM) Change from Baseline 1 h” value is -0.51 nM. In addition, in the data set on plasma cGMP, the “Net cGMP (nM) Change from Baseline 2 h” value is -1.82 nM, the “Net cGMP (nM) Change from Baseline 4 h” value is recorded as 1.83 nM, the “Net cGMP (nM) Change from Baseline 8 h” value is 10.57 nM and the “Net cGMP (nM) Change from Baseline 12 h” value is 12.11 nM. Further, in the data set with plasma cGMP, the “Net cGMP (nM) Change from Baseline 24 h” value is listed as 17.03 nM, the “Net cGMP (nM) Change from Baseline 36 h” value came out at 16.59 nM, the “Net cGMP (nM) Change from Baseline 48 h” value was 11.66 nM and the “Net cGMP (nM) Change from Baseline 72 h” value was 11.45 nM. Also, in the data set with plasma cGMP, the “Net cGMP (nM) Change from Baseline 96 h” value is reported as 9.32 nM, the “Net cGMP (nM) Change from Baseline 120 h” value is given as 9.31 nM, the “Net cGMP (nM) Change from Baseline 144 h” value stood at 7.36 nM and the “Net cGMP (nM) Change from Baseline 168 h” value is recorded as 1.99 nM. In addition, the “net cGMP levels (result in words)” value in the data set with plasma cGMP was “increased net cGMP levels”.
